Earlier results on one compound are cited in patent US7648982B2 (priority 2003, dated 2010).

For series [1] the following is noted: in vivo.
For series [2] the following is noted: in vivo, iv.

For `CN1CC[C@]23c4c5ccc(O)c4O[C@H]2[C@@H](O)C=C[C@H]3[C@H]1C5` [morphine], in series [1], the K10 entry is recorded as “Morphine_K10 = 0.07051”, the K12 entry is recorded as “Morphine_K12 = 0.1273”, the K13 result is “Morphine_K13 = 0.01826” and the K21 result was “Morphine_K21 = 0.02596”. In series [1], the K31 result is reported as “Morphine_K31 = 0.001633”, the Ke0 entry was “Morphine_Ke0 = 0.005” and the V1 entry was “Morphine_V1 = 17.8”. Also, in series [2], the “delay of peak drug effect from the time of injection” value was 10 to 15 min.
